Legend:
[1] = Mouse Pharmacokinetics, oral single dose; type: in vivo, male Swiss Albino mice; conditions: male, Swiss Albino, plasma, 5 mg/kg, formulation by footnote: a 20% CremEL in H20, b 1% CMC in water, c 2% DMSO, 0.2% Tween80, 97.8% of 1% CMC
Experimental: Example 187: Mouse Pharmacokinetics
A dose of 5 mg/kg in an appropriate formulation was administered by oral gavage to fasted male Swiss Albino mice (n=3), and the plasma was collected at 0, 0.25, 0.5, 1, 2, 4, 8, and 24 h. Plasma levels were measured by HPLC/MS/MS methods and the pharmacokinetic parameters were determined for individual animals from plasma concentration-time data using noncompartmental model 200-202 in Phoenix WinNonlin 6.3.

[2] = molecular target: HDAC6 (Homo sapiens (Human), UniProt Q9UBN7); experiment: HDAC6 enzymatic assay; type: biochemical; conditions: read-out: Human HDAC6 IC50
HDAC6, sequence (Q9UBN7 whole entry): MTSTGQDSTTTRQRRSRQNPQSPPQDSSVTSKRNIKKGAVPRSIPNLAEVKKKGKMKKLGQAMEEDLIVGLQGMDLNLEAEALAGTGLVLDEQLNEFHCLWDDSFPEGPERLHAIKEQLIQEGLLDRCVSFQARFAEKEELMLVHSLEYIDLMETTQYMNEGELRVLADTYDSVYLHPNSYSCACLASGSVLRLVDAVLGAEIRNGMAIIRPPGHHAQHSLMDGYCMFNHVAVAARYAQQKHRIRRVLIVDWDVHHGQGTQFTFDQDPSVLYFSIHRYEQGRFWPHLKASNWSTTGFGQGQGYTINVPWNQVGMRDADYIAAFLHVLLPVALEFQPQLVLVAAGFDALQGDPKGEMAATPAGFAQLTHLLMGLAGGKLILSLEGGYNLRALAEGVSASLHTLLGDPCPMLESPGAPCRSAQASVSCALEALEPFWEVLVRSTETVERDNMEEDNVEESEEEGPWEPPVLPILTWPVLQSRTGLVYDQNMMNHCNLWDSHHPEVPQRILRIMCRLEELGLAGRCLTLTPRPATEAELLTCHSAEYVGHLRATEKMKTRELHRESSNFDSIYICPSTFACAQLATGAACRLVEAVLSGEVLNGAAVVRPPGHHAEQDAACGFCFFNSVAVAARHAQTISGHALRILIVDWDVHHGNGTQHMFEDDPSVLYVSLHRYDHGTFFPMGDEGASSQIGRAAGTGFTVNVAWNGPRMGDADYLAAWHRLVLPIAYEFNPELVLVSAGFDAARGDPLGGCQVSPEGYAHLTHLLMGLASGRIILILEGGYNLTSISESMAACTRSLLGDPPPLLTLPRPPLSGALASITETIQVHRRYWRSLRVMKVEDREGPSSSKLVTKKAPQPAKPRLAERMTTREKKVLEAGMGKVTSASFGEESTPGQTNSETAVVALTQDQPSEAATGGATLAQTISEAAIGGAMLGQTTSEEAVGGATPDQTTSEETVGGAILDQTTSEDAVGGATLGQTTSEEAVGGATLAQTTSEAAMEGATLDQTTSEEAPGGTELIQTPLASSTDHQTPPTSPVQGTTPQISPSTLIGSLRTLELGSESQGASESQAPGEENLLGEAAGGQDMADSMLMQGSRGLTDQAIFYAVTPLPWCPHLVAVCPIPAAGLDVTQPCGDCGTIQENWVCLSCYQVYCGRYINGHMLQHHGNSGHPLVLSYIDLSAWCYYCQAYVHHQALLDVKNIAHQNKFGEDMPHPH
Outline: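 Following a 17 hour room-temperature incubation of 2 ng HDAC6 with 10 uM substrate and compound, 50 μl developer was added for another 20 minutes, and fluorescence (excitation 360 nm, emission 460 nm) was recorded. Activity was normalized to no-compound (100%) and no-enzyme (0%) wells, and IC50 came from sigmoidal dose-response fitting in Graphpad Prism.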

[3] = molecular target: HDAC1 (Homo sapiens (Human), UniProt Q13547); experiment: HDAC1 enzymatic assay; type: biochemical; conditions: read-out: Human HDAC1 IC50
HDAC1, sequence (Q13547 whole entry): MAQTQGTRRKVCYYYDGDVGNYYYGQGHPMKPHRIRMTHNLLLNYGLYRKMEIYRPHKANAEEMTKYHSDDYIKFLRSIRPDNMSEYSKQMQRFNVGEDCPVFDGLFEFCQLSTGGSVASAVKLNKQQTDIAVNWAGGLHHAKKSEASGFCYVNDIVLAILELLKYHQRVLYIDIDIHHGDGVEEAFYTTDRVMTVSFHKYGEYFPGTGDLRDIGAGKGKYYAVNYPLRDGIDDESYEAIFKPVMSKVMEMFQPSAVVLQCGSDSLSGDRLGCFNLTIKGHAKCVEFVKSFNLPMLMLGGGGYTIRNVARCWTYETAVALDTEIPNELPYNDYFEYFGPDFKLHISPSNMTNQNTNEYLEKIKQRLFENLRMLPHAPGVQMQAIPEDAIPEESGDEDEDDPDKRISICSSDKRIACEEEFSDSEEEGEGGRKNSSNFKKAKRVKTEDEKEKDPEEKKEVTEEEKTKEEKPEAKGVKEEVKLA
Outline: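 Compound inhibition of human HDAC1 (0.5 ng enzyme, 10 uM substrate) was assessed by fluorescence after developer treatment, excitation 360 nm and emission 460 nm. Percent activity was normalized to no-compound (100%) and no-enzyme (0%) controls, plotted against concentration, and fitted to a sigmoidal dose-response curve in Graphpad Prism to obtain IC50 at half-maximal activity.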

CS(=O)(=O)NCC(Nc1ncc(-c2nnc(C(F)F)o2)cn1)c1ccc(F)cc1F (single isomer, unassigned) [103(+), N-(2-((5-(5-(difluoromethyl)-1,3,4-oxadiazol-2-yl)pyrimidin-2-yl)amino)-2-(2,4-difluorophenyl)ethyl)methanesulfonamide]
Cmax [1]: 2370 ng/mL | half-life [1]: 3.2 h | IC50 [2]: 16 nM | IC50 [3]: > 30000 nM

CN(CC(Nc1ncc(-c2nnc(C(F)F)o2)cn1)c1ccc(F)cc1)S(C)(=O)=O (single isomer, unassigned) [113(+), N-(2-((5-(5-(difluoromethyl)-1,3,4-oxadiazol-2-yl)pyrimidin-2-yl)amino)-2-(4-fluorophenyl)ethyl)-N-methylmethanesulfonamide]
Cmax [1]: 1360 ng/mL | half-life [1]: 3.5 h

CS(=O)(=O)NCC(Nc1ncc(-c2nnc(C(F)F)o2)cn1)c1ccc(OC(F)F)cc1F (single isomer, unassigned) [116(+), N-(2-(4-(difluoromethoxy)-2-fluorophenyl)-2-((5-(5-(difluoromethyl)-1,3,4-oxadiazol-2-yl)pyrimidin-2-yl)amino)ethyl)methanesulfonamide]
Cmax [1]: 1010 ng/mL | half-life [1]: 4.5 h | IC50 [2]: 17 nM | IC50 [3]: > 30000 nM

CS(=O)(=O)NCC(Nc1ncc(-c2nnc(C(F)F)o2)cn1)c1ccc(F)c(F)c1 (single isomer, unassigned) [171(+), N-(2-((5-(5-(difluoromethyl)-1,3,4-oxadiazol-2-yl)pyrimidin-2-yl)amino)-2-(3,4-difluorophenyl)ethyl)methanesulfonamide]
Cmax [1]: 2590 ng/mL | half-life [1]: 3.3 h | IC50 [2]: 230 nM | IC50 [3]: > 30000 nM

FC(F)c1nnc(-c2cnc(NC3(c4cc(OCC(F)(F)F)ccc4Cl)CC3)nc2)o1 [Example 89, N-(1-(2-chloro-5-(2,2,2-trifluoroethoxy)phenyl)cyclopropyl)-5-(5-(difluoromethyl)-1,3,4-oxadiazol-2-yl)pyrimidin-2-amine]
IC50 [2]: 100 nM | IC50 [3]: > 30000 nM

Cc1ccc(Cl)c(C2(Nc3ncc(-c4nnc(C(F)F)o4)cn3)CC2)c1 [Example 90, N-(1-(2-chloro-5-methylphenyl)cyclopropyl)-5-(5-(difluoromethyl)-1,3,4-oxadiazol-2-yl)pyrimidin-2-amine]
IC50 [2]: 35 nM | IC50 [3]: > 30000 nM

Fc1cccc(C2(Nc3ncc(-c4nnc(C(F)F)o4)cn3)CC2)c1Cl [Example 91, N-(1-(2-chloro-3-fluorophenyl)cyclopropyl)-5-(5-(difluoromethyl)-1,3,4-oxadiazol-2-yl)pyrimidin-2-amine]
IC50 [2]: 21 nM | IC50 [3]: > 30000 nM

CC(O)C(Nc1ncc(-c2nnc(C(F)F)o2)cn1)c1ccc(F)cc1F (stereo not drawn) [Example 93, 1-((5-(5-(difluoromethyl)-1,3,4-oxadiazol-2-yl)pyrimidin-2-yl)amino)-1-(2,4-difluorophenyl)propan-2-ol]
IC50 [2]: 43 nM | IC50 [3]: > 30000 nM

NCC(Nc1ncc(-c2nnc(C(F)F)o2)cn1)c1ccc(F)cc1 (stereo not drawn) [Example 96, N1-(5-(5-(difluoromethyl)-1,3,4-oxadiazol-2-yl)pyrimidin-2-yl)-1-(4-fluorophenyl)ethane-1,2-diamine]
IC50 [2]: 58 nM | IC50 [3]: > 30000 nM

CC(C)(Nc1ncc(-c2nnc(C(F)F)o2)cn1)c1ccc(F)cc1F [Example 97, 5-(5-(difluoromethyl)-1,3,4-oxadiazol-2-yl)-N-(2-(2,4-difluorophenyl)propan-2-yl)pyrimidin-2-amine]
IC50 [2]: 34 nM | IC50 [3]: > 30000 nM

CC(C)(Nc1ncc(-c2nnc(C(F)F)o2)cn1)c1c(F)cccc1F [Example 98, 5-(5-(difluoromethyl)-1,3,4-oxadiazol-2-yl)-N-(2-(2,6-difluorophenyl)propan-2-yl)pyrimidin-2-amine]
IC50 [2]: 16 nM | IC50 [3]: > 30000 nM

C[C@H](Nc1ncc(-c2nnc(C(F)F)o2)cn1)c1ccc(F)cc1F [Example 99-S]
IC50 [2]: > 1000 nM | IC50 [3]: > 30000 nM

Fc1cccc(F)c1C(CC(F)(F)F)Nc1ncc(-c2nnc(C(F)F)o2)cn1 (stereo not drawn) [Example 102, 5-(5-(difluoromethyl)-1,3,4-oxadiazol-2-yl)-N-(1-(2,6-difluorophenyl)-3,3,3-trifluoropropyl)pyrimidin-2-amine]
IC50 [2]: 92 nM | IC50 [3]: > 30000 nM

COc1cc(F)c(C2(Nc3ncc(-c4nnc(C(F)F)o4)cn3)CC2)c(F)c1 [Example 106, N-(1-(2,6-difluoro-4-methoxyphenyl)cyclopropyl)-5-(5-(difluoromethyl)-1,3,4-oxadiazol-2-yl)pyrimidin-2-amine]
IC50 [2]: 16 nM | IC50 [3]: > 30000 nM

CCCS(=O)(=O)NCC(Nc1ncc(-c2nnc(C(F)F)o2)cn1)c1ccc(F)cc1 (stereo not drawn) [Example 111, N-(2-((5-(5-(difluoromethyl)-1,3,4-oxadiazol-2-yl)pyrimidin-2-yl)amino)-2-(4-fluorophenyl)ethyl)propane-1-sulfonamide]
IC50 [2]: 32 nM | IC50 [3]: > 30000 nM

CC(C)CS(=O)(=O)NCC(Nc1ncc(-c2nnc(C(F)F)o2)cn1)c1ccc(F)cc1 (stereo not drawn) [Example 112, N-(2-((5-(5-(difluoromethyl)-1,3,4-oxadiazol-2-yl)pyrimidin-2-yl)amino)-2-(4-fluorophenyl)ethyl)-2-methylpropane-1-sulfonamide]
IC50 [2]: 32 nM | IC50 [3]: > 30000 nM

CN(CC(Nc1ncc(-c2nnc(C(F)F)o2)cn1)c1ccc(F)cc1)S(C)(=O)=O (stereo not drawn) [Example 113, N-(2-((5-(5-(difluoromethyl)-1,3,4-oxadiazol-2-yl)pyrimidin-2-yl)amino)-2-(4-fluorophenyl)ethyl)-N-methylmethanesulfonamide]
IC50 [2]: 21 nM | IC50 [3]: > 30000 nM

O=C(NCC(Nc1ncc(-c2nnc(C(F)F)o2)cn1)c1ccc(F)cc1)C(F)(F)F (stereo not drawn) [Example 114, N-(2-((5-(5-(difluoromethyl)-1,3,4-oxadiazol-2-yl)pyrimidin-2-yl)amino)-2-(4-fluorophenyl)ethyl)-2,2,2-trifluoroacetamide]
IC50 [2]: 50 nM | IC50 [3]: > 30000 nM

CS(=O)(=O)N(CC(Nc1ncc(-c2nnc(C(F)F)o2)cn1)c1ccc(F)cc1)CC(F)(F)F (stereo not drawn) [Example 118, N-(2-((5-(5-(difluoromethyl)-1,3,4-oxadiazol-2-yl)pyrimidin-2-yl)amino)-2-(4-fluorophenyl)ethyl)-N-(2,2,2-trifluoroethyl)methanesulfonamide]
IC50 [2]: 72 nM | IC50 [3]: > 30000 nM

CS(=O)(=O)NCCC(Nc1ncc(-c2nnc(C(F)F)o2)cn1)c1ccc(F)cc1 (stereo not drawn) [Example 125, N-(3-((5-(5-(difluoromethyl)-1,3,4-oxadiazol-2-yl)pyrimidin-2-yl)amino)-3-(4-fluorophenyl)propyl)methanesulfonamide]
IC50 [2]: 26 nM | IC50 [3]: > 30000 nM

CS(=O)(=O)Nc1cccc(C(Nc2ncc(-c3nnc(C(F)F)o3)cn2)c2ccc(F)cc2)c1 (stereo not drawn) [Example 128, N-(3-(((5-(5-(difluoromethyl)-1,3,4-oxadiazol-2-yl)pyrimidin-2-yl)amino)(4-fluorophenyl)methyl)phenyl)methanesulfonamide]
IC50 [2]: 130 nM | IC50 [3]: > 30000 nM

CS(=O)(=O)Nc1ccc(C(Nc2ncc(-c3nnc(C(F)F)o3)cn2)c2ccc(F)cc2)cc1 (stereo not drawn) [Example 129, N-(4-(((5-(5-(difluoromethyl)-1,3,4-oxadiazol-2-yl)pyrimidin-2-yl)amino)(4-fluorophenyl)methyl)phenyl)methanesulfonamide]
IC50 [2]: 250 nM | IC50 [3]: > 30000 nM

CS(=O)(=O)Nc1ccccc1C(Nc1ncc(-c2nnc(C(F)F)o2)cn1)c1ccc(F)cc1 (stereo not drawn) [Example 130, N-(2-(((5-(5-(difluoromethyl)-1,3,4-oxadiazol-2-yl)pyrimidin-2-yl)amino)(4-fluorophenyl)methyl)phenyl)methanesulfonamide]
IC50 [2]: 190 nM | IC50 [3]: > 30000 nM

CS(=O)(=O)Nc1ccccc1CC(Nc1ncc(-c2nnc(C(F)F)o2)cn1)c1ccc(F)cc1 (stereo not drawn) [Example 131, N-(2-(2-((5-(5-(difluoromethyl)-1,3,4-oxadiazol-2-yl)pyrimidin-2-yl)amino)-2-(4-fluorophenyl)ethyl)phenyl)methanesulfonamide]
IC50 [2]: 58 nM | IC50 [3]: > 30000 nM

CS(=O)(=O)Nc1cccc(CC(Nc2ncc(-c3nnc(C(F)F)o3)cn2)c2ccc(F)cc2)c1 (stereo not drawn) [Example 132, N-(3-(2-((5-(5-(difluoromethyl)-1,3,4-oxadiazol-2-yl)pyrimidin-2-yl)amino)-2-(4-fluorophenyl)ethyl)phenyl)methanesulfonamide]
IC50 [2]: 83 nM | IC50 [3]: > 30000 nM

CS(=O)(=O)Nc1ccc(CC(Nc2ncc(-c3nnc(C(F)F)o3)cn2)c2ccc(F)cc2)cc1 (stereo not drawn) [Example 133, N-(4-(2-((5-(5-(difluoromethyl)-1,3,4-oxadiazol-2-yl)pyrimidin-2-yl)amino)-2-(4-fluorophenyl)ethyl)phenyl)methanesulfonamide]
IC50 [2]: 330 nM | IC50 [3]: > 30000 nM

O=C(CCCCCCNC(=O)c1cnc(N(c2ccccc2)c2ccccc2)nc1)NO [Ricolinostat, ricolinostat, reference compound]
Cmax [1]: 47 ng/mL | half-life [1]: 2.7 h

— patent US10357493B2, “Metalloenzyme inhibitor compounds” (Selenity Therapeutics (Bermuda), Ltd., priority 2017, dated 2019)
